Measured values reported in patent US7468384B2, “Microbicidal composition” (Rohm and Haas Company, priority 2004, dated 2008).
Read-outs that look alike come from different tables or passages of the source.

Key:
Assay type in all cases: cell-based
[1] = tested on: Candida albicans (C. albicans—ATCC 10231); test: Synergy test, microtiter plate high resolution MIC assay, yeast; settings: for MIC: Candida albicans
Summary of the method: (§1)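 Values derive from Kull synergy index (Qa/QA + Qb/QB, ppm MIC endpoints, alone vs in mixture). Endpoints from high-resolution microtiter MICs spanning 2–10,000 ppm; bacterium ~5×10^6/mL in TSB or M9GY, yeast and mold 5×10^5/mL in PDB.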

[2] = tested on: Aspergillus niger (A. niger—ATCC 16404); test: Synergy test, microtiter plate high resolution MIC assay, mold; settings: for MIC: Aspergillus niger; for SI (calculated synergy index): A. niger 16404, PDB
Summary of the method: as §1

[3] = tested on: Escherichia coli (E. coli—ATCC #8739); test: Synergy test, microtiter plate high resolution MIC assay, bacterium; settings: Escherichia coli, ATCC8739, 24 h, read-out: MIC of component acting alone (QA / QB)
Summary of the method: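 High-resolution MICs were found by adding microbicide to one microtitre column and making ten-fold dilutions with an automated liquid handler, giving endpoints from 2 ppm to 10,000 ppm active ingredient. The MIC is the lowest concentration that prevents growth. E. coli 8739, at roughly 5×10^6 cells per mL, grew in glucose/yeast-extract-supplemented minimal salt medium (M9GY). Values above one indicate antagonism.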

[4] = tested on: Pseudomonas aeruginosa (P. aeruginosa—ATCC #15442); test: as above; settings: for MIC: Pseudomonas aeruginosa
Summary of the method: as §1

Cn1sccc1=O [2-methyl-3-isothiazolone, 2-methyl-4-isothiazolin-3-one]
MIC ([1]; ATCC10231, 24 h, read-out: MIC of component acting alone (QA / QB)): 200 µg/mL | MIC ([1]; ATCC10231, 24 h, read-out: Qa: end-point activity (MIC) of MI in the mixture (MI alone, QA, where Qb = 0)): 125 µg/mL | MIC ([1]; ATCC10231, 48 h, read-out: MIC of component acting alone (QA / QB)): 200 µg/mL | MIC ([1]; ATCC10231, 72 h, read-out: MIC of component acting alone (QA / QB)): 200 µg/mL | SI (calculated synergy index) ([1]; Table 5, C. albicans 10231, PDB, 24 hours): 1.00 | SI (calculated synergy index) ([1]; Table 6, C. albicans 10231, PDB, 24 hours): 1.00 | Qa: end-point activity (MIC) of MI in the mixture (MI alone, QA, where Qb = 0) ([1]; Table 6, C. albicans 10231, PDB, 24 hours, B = Cocamidopropyl PG-dimonium chloride phosphate): 125 ppm | MIC ([2]; ATCC16404, 96 h, read-out: MIC of component acting alone (QA / QB)): 400 µg/mL | MIC ([2]; ATCC16404, 96 h, read-out: Qa: end-point activity (MIC) of MI in the mixture (MI alone, QA, where Qb = 0)): 400 µg/mL | MIC ([2]; ATCC16404, 168 h, read-out: MIC of component acting alone (QA / QB)): 500 µg/mL | MIC ([2]; ATCC16404, 168 h, read-out: Qa: end-point activity (MIC) of MI in the mixture (MI alone, QA, where Qb = 0)): 400 µg/mL | SI (calculated synergy index) ([2]; Table 5, 7 days): 1.00 | SI (calculated synergy index) ([2]; Table 6, 4 days): 1.00 | MIC [3]: 30 µg/mL | MIC of component acting alone (QA / QB) ([4]; P. aeruginosa 15442, M9GY, 48 hours): 30 ppm | MIC ([4]; ATCC15442, 24 h, read-out: MIC of component acting alone (QA / QB), P. aeruginosa 15442, TSB, 24 hours): 50 µg/mL | MIC ([4]; ATCC15442, 48 h, read-out: MIC of component acting alone (QA / QB), P. aeruginosa 15442, M9GY, 48 hours): 20 µg/mL | MIC ([4]; ATCC15442, 48 h, read-out: MIC of component acting alone (QA / QB), P. aeruginosa 15442, TSB, 48 hours): 60 µg/mL | MIC ([4]; ATCC15442, 48 h, read-out: Qa: end-point activity (MIC) of MI in the mixture (MI alone, QA, where Qb = 0), Table 5, P. aeruginosa 15442, M9GY, 48 hours, B = Linoleamidopropyl PG-dimonium chloride phosphate): 30 µg/mL | MIC ([4]; ATCC15442, 48 h, read-out: Qa: end-point activity (MIC) of MI in the mixture (MI alone, QA, where Qb = 0), Table 5, P. aeruginosa 15442, TSB, 48 hours, B = Linoleamidopropyl PG-dimonium chloride phosphate): 80 µg/mL | MIC ([4]; ATCC15442, 48 h, read-out: Qa: end-point activity (MIC) of MI in the mixture (MI alone, QA, where Qb = 0), Table 6, P. aeruginosa 15442, TSB, 48 hours, B = Cocamidopropyl PG-dimonium chloride phosphate): 80 µg/mL | MIC ([4]; ATCC15442, 72 h, read-out: MIC of component acting alone (QA / QB), P. aeruginosa 15442, TSB, 72 hours): 70 µg/mL | MIC ([4]; ATCC15442, 72 h, read-out: Qa: end-point activity (MIC) of MI in the mixture (MI alone, QA, where Qb = 0), Table 6, P. aeruginosa 15442, M9GY, 72 hours, B = Cocamidopropyl PG-dimonium chloride phosphate): 30 µg/mL | SI (calculated synergy index) ([4]; Table 5, P. aeruginosa 15442, M9GY, 48 hours): 1.00 | SI (calculated synergy index) ([4]; Table 5, P. aeruginosa 15442, TSB, 48 hours): 1.00 | SI (calculated synergy index) ([4]; Table 6, P. aeruginosa 15442, M9GY, 72 hours): 1.00 | SI (calculated synergy index) ([4]; Table 6, P. aeruginosa 15442, TSB, 48 hours): 1.00
